Results from ChEMBL document CHEMBL1155172, “Distribution of radioactivity in bone and related structures following administration of [14C]dalbavancin to New Zealand white rabbits” (Antimicrob Agents Chemother, 2007).

What was measured:
[1] = Drug level in New Zealand white rabbit ligament assessed as [14C]dalbavancin level per gram of tissue at 20 mg/kg, iv after 168 hrs by autoradioluminography; type: ADME, organism-based, Oryctolagus cuniculus; set-up: dose 20 mg/kg, route intravenous; settings: in vivo
[2] = Drug level in New Zealand white rabbit ligament assessed as [14C]dalbavancin level per gram of tissue at 20 mg/kg, iv after 336 hrs by autoradioluminography; type: ADME, organism-based, Oryctolagus cuniculus; set-up: dose 20 mg/kg, route intravenous; settings: in vivo
[3] = Drug level in New Zealand white rabbit synovial space assessed as [14C]dalbavancin level per gram of tissue at 20 mg/kg, iv after 12 hrs by autoradioluminography; type: ADME, organism-based, Oryctolagus cuniculus; set-up: dose 20 mg/kg, route intravenous; settings: in vivo
[4] = Drug level in New Zealand white rabbit synovial space assessed as [14C]dalbavancin level per gram of tissue at 20 mg/kg, iv after 24 hrs by autoradioluminography; type: ADME, organism-based, Oryctolagus cuniculus; set-up: dose 20 mg/kg, route intravenous; settings: in vivo
[5] = Drug level in New Zealand white rabbit synovial space assessed as [14C]dalbavancin level per gram of tissue at 20 mg/kg, iv after 120 hrs by autoradioluminography; type: ADME, organism-based, Oryctolagus cuniculus; set-up: dose 20 mg/kg, route intravenous; settings: in vivo
[6] = Drug level in New Zealand white rabbit synovial space assessed as [14C]dalbavancin level per gram of tissue at 20 mg/kg, iv after 336 hrs by autoradioluminography; type: ADME, organism-based, Oryctolagus cuniculus; set-up: dose 20 mg/kg, route intravenous; settings: in vivo
[7] = Drug level in New Zealand white rabbit meniscus assessed as [14C]dalbavancin level per gram of tissue at 20 mg/kg, iv after 24 hrs by autoradioluminography; type: ADME, organism-based, Oryctolagus cuniculus; set-up: dose 20 mg/kg, route intravenous; settings: in vivo
[8] = Drug level in New Zealand white rabbit meniscus assessed as [14C]dalbavancin level per gram of tissue at 20 mg/kg, iv after 72 hrs by autoradioluminography; type: ADME, organism-based, Oryctolagus cuniculus; set-up: dose 20 mg/kg, route intravenous; settings: in vivo
[9] = Drug level in New Zealand white rabbit bone marrow assessed as [14C]dalbavancin level per gram of tissue at 20 mg/kg, iv after 72 hrs by autoradioluminography; type: ADME, organism-based, Oryctolagus cuniculus; set-up: dose 20 mg/kg, route intravenous; settings: in vivo
[10] = Drug level in New Zealand white rabbit bone marrow assessed as [14C]dalbavancin level per gram of tissue at 20 mg/kg, iv after 168 hrs by autoradioluminography; type: ADME, organism-based, Oryctolagus cuniculus; set-up: dose 20 mg/kg, route intravenous; settings: in vivo
[11] = Drug level in human urine assessed as hydroxydalbavancin level; type: ADME, tissue-based
Staphylococcus = experiment: Antibacterial activity against Staphylococcus; type: functional
Blood [12] = experiment: Drug level in New Zealand white rabbit blood assessed as [14C]dalbavancin level per gram of tissue at 20 mg/kg, iv after 120 hrs by autoradioluminography; type: ADME, organism-based, Oryctolagus cuniculus; set-up: dose 20 mg/kg, route intravenous; settings: in vivo
Blood [13] = experiment: Drug level in New Zealand white rabbit blood assessed as [14C]dalbavancin level per gram of tissue at 20 mg/kg, iv after 168 hrs by autoradioluminography; type: ADME, organism-based, Oryctolagus cuniculus; set-up: dose 20 mg/kg, route intravenous; settings: in vivo
[14] = Drug level in New Zealand white rabbit articular cartilage assessed as [14C]dalbavancin level per gram of tissue at 20 mg/kg, iv after 24 hrs by autoradioluminography; type: ADME, organism-based, Oryctolagus cuniculus; set-up: dose 20 mg/kg, route intravenous; settings: in vivo
[15] = Drug level in New Zealand white rabbit articular cartilage assessed as [14C]dalbavancin level per gram of tissue at 20 mg/kg, iv after 72 hrs by autoradioluminography; type: ADME, organism-based, Oryctolagus cuniculus; set-up: dose 20 mg/kg, route intravenous; settings: in vivo
[16] = Drug level in New Zealand white rabbit articular cartilage assessed as [14C]dalbavancin level per gram of tissue at 20 mg/kg, iv after 120 hrs by autoradioluminography; type: ADME, organism-based, Oryctolagus cuniculus; set-up: dose 20 mg/kg, route intravenous; settings: in vivo
[17] = Drug level in New Zealand white rabbit compact bone assessed as [14C]dalbavancin level per gram of tissue at 20 mg/kg, iv after 12 hrs by autoradioluminography; type: ADME, organism-based, Oryctolagus cuniculus, Bone element; set-up: dose 20 mg/kg, route intravenous; settings: in vivo
[18] = Drug level in New Zealand white rabbit compact bone assessed as [14C]dalbavancin level per gram of tissue at 20 mg/kg, iv after 120 hrs by autoradioluminography; type: ADME, organism-based, Oryctolagus cuniculus, Bone element; set-up: dose 20 mg/kg, route intravenous; settings: in vivo
[19] = Drug level in New Zealand white rabbit epiphyseal plate assessed as [14C]dalbavancin level per gram of tissue at 20 mg/kg, iv after 12 hrs by autoradioluminography; type: ADME, organism-based, Oryctolagus cuniculus; set-up: dose 20 mg/kg, route intravenous; settings: in vivo
[20] = Drug level in New Zealand white rabbit epiphyseal plate assessed as [14C]dalbavancin level per gram of tissue at 20 mg/kg, iv after 24 hrs by autoradioluminography; type: ADME, organism-based, Oryctolagus cuniculus; set-up: dose 20 mg/kg, route intravenous; settings: in vivo
[21] = Drug level in New Zealand white rabbit epiphyseal plate assessed as [14C]dalbavancin level per gram of tissue at 20 mg/kg, iv after 336 hrs by autoradioluminography; type: ADME, organism-based, Oryctolagus cuniculus; set-up: dose 20 mg/kg, route intravenous; settings: in vivo
[22] = Drug level in New Zealand white rabbit ligament assessed as [14C]dalbavancin level per gram of tissue at 20 mg/kg, iv after 24 hrs by autoradioluminography; type: ADME, organism-based, Oryctolagus cuniculus; set-up: dose 20 mg/kg, route intravenous; settings: in vivo
[23] = Drug level in New Zealand white rabbit ligament assessed as [14C]dalbavancin level per gram of tissue at 20 mg/kg, iv after 120 hrs by autoradioluminography; type: ADME, organism-based, Oryctolagus cuniculus; set-up: dose 20 mg/kg, route intravenous; settings: in vivo
Oryctolagus cuniculus [24] = experiment: Plasma concentration in New Zealand white rabbit assessed as [14C]dalbavancin level per gram of tissue at 20 mg/kg, iv after 120 hrs by liquid scintillation counting method; type: ADME, organism-based; set-up: dose 20 mg/kg, route intravenous; settings: in vivo
Oryctolagus cuniculus [25] = experiment: Plasma concentration in New Zealand white rabbit assessed as [14C]dalbavancin level per gram of tissue at 20 mg/kg, iv after 168 hrs by liquid scintillation counting method; type: ADME, organism-based; set-up: dose 20 mg/kg, route intravenous; settings: in vivo
[26] = Drug level in New Zealand white rabbit bone assessed as [14C]dalbavancin level per gram of tissue at 20 mg/kg, iv after 12 hrs by liquid scintillation counting method; type: ADME, organism-based, Oryctolagus cuniculus, Bone element; set-up: dose 20 mg/kg, route intravenous; settings: in vivo
[27] = Drug level in New Zealand white rabbit bone assessed as [14C]dalbavancin level per gram of tissue at 20 mg/kg, iv after 120 hrs by liquid scintillation counting method; type: ADME, organism-based, Oryctolagus cuniculus, Bone element; set-up: dose 20 mg/kg, route intravenous; settings: in vivo
[28] = Drug level in New Zealand white rabbit bone assessed as [14C]dalbavancin level per gram of tissue at 20 mg/kg, iv after 168 hrs by liquid scintillation counting method; type: ADME, organism-based, Oryctolagus cuniculus, Bone element; set-up: dose 20 mg/kg, route intravenous; settings: in vivo
[29] = Drug level in New Zealand white rabbit bone assessed as [14C]dalbavancin level per gram of tissue at 20 mg/kg, iv after 336 hrs by liquid scintillation counting method; type: ADME, organism-based, Oryctolagus cuniculus, Bone element; set-up: dose 20 mg/kg, route intravenous; settings: in vivo
[30] = Drug level in New Zealand white rabbit bone marrow assessed as [14C]dalbavancin level per gram of tissue at 20 mg/kg, iv after 12 hrs by liquid scintillation counting method; type: ADME, organism-based, Oryctolagus cuniculus; set-up: dose 20 mg/kg, route intravenous; settings: in vivo
[31] = Drug level in New Zealand white rabbit bone marrow assessed as [14C]dalbavancin level per gram of tissue at 20 mg/kg, iv after 72 hrs by liquid scintillation counting method; type: ADME, organism-based, Oryctolagus cuniculus; set-up: dose 20 mg/kg, route intravenous; settings: in vivo
[32] = Drug level in New Zealand white rabbit bone marrow assessed as [14C]dalbavancin level per gram of tissue at 20 mg/kg, iv after 168 hrs by liquid scintillation counting method; type: ADME, organism-based, Oryctolagus cuniculus; set-up: dose 20 mg/kg, route intravenous; settings: in vivo
[33] = Drug level in New Zealand white rabbit nucleus pulposus assessed as [14C]dalbavancin level per gram of tissue at 20 mg/kg, iv after 12 hrs by liquid scintillation counting method; type: ADME, organism-based, Oryctolagus cuniculus; set-up: dose 20 mg/kg, route intravenous; settings: in vivo
[34] = Drug level in New Zealand white rabbit nucleus pulposus assessed as [14C]dalbavancin level per gram of tissue at 20 mg/kg, iv after 120 hrs by liquid scintillation counting method; type: ADME, organism-based, Oryctolagus cuniculus; set-up: dose 20 mg/kg, route intravenous; settings: in vivo
Blood [35] = experiment: Drug level in New Zealand white rabbit blood assessed as [14C]dalbavancin level per gram of tissue at 20 mg/kg, iv after 24 hrs by autoradioluminography; type: ADME, organism-based, Oryctolagus cuniculus; set-up: dose 20 mg/kg, route intravenous; settings: in vivo
[36] = Drug level in New Zealand white rabbit cerebrospinal fluid assessed as [14C]dalbavancin level per gram of tissue at 20 mg/kg, iv after 24 hrs by liquid scintillation counting method; type: ADME, organism-based, Oryctolagus cuniculus; set-up: dose 20 mg/kg, route intravenous; settings: in vivo
Blood [37] = experiment: Drug level in New Zealand white rabbit blood assessed as [14C]dalbavancin level per gram of tissue at 20 mg/kg, iv after 12 hrs by autoradioluminography; type: ADME, organism-based, Oryctolagus cuniculus; set-up: dose 20 mg/kg, route intravenous; settings: in vivo
Blood [38] = experiment: Drug level in New Zealand white rabbit blood assessed as [14C]dalbavancin level per gram of tissue at 20 mg/kg, iv after 72 hrs by autoradioluminography; type: ADME, organism-based, Oryctolagus cuniculus; set-up: dose 20 mg/kg, route intravenous; settings: in vivo

Drug uptake [1]: 2.67 µg | Drug uptake [2]: 1.43 µg | Drug uptake [3]: 6.56 µg/g | Drug uptake [4]: 4.25 µg | Drug uptake [5]: 2.66 µg/g | Drug uptake [6]: 1.16 µg/g | Drug uptake [7]: 12.4 µg/g | Drug uptake [8]: 8.04 µg | Drug uptake [9]: 37.79 µg | Drug uptake [10]: 18.9 µg | Drug uptake [11]: 8 %ID | MIC90 (Staphylococcus): ≤ 0.06 µg/mL | Drug uptake (Blood [12]): 1.5 µg/g | Drug uptake (Blood [13]): 5.33 µg/g | Drug uptake [14]: 21.4 µg/g | Drug uptake [15]: 8.04 µg/g | Drug uptake [16]: 6.56 µg | Drug uptake [17]: 1.56 µg/g | Drug uptake [18]: 0.38 µg/g | Drug uptake [19]: 21.9 µg/g | Drug uptake [20]: 18.7 µg/g | Drug uptake [21]: 8.42 µg/g | Drug uptake [22]: 8.64 µg/g | Drug uptake [23]: 3.68 µg/g | Cp (Oryctolagus cuniculus [24]): 2.78 µg | Cp (Oryctolagus cuniculus [25]): 2.01 µg | Drug uptake [26]: 7.04 µg | Drug uptake [27]: 3.46 µg/g | Drug uptake [28]: 3.39 µg/g | Drug uptake [29]: 1.96 µg/g | Drug uptake [30]: 15.1 µg/g | Drug uptake [31]: 12.7 µg/g | Drug uptake [32]: 16.1 µg/g | Drug uptake [33]: 0.86 µg/g | Drug uptake [34]: 0.75 µg/g | Drug uptake (Blood [35]): 14.49 µg | Drug uptake [36]: 0.05 µg/g | Drug uptake (Blood [37]): 30.6 µg/g | Drug uptake (Blood [38]): 5.02 µg/g
SMILES: CN[C@H]1C(=O)N[C@@H]2Cc3ccc(cc3)Oc3cc4cc(c3O[C@@H]3O[C@H](C(=O)O)[C@@H](O)[C@H](O)[C@H]3NC(=O)CCCCCCCCC(C)C)Oc3ccc(cc3Cl)[C@@H](O)[C@@H]3NC(=O)[C@H](NC(=O)[C@@H]4NC(=O)[C@@H](NC2=O)c2cc(cc(O)c2Cl)Oc2cc1ccc2O)c1ccc(O)c(c1)-c1c(O[C@H]2O[C@H](CO)[C@@H](O)[C@H](O)[C@@H]2O)cc(O)cc1[C@@H](C(=O)NCCCN(C)C)NC3=O [DALBAVANCIN]
